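Values below derive from 48-hour exposures of cells grown in 96-well plates, with endpoints linearly interpolated between the two concentrations bracketing the appropriate inhibition level. TGI denotes the concentration required for complete inhibition of growth.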
Tests used:
Experiment in all cases: inhibition of tumour cell growth, NCI panel, 48 h
OVCAR-8 ovarian = tested on: OVCAR-8 ovarian
ACHN renal = tested on: ACHN renal
SK-MEL-2 melanoma = tested on: SK-MEL-2 melanoma
OVCAR-4 ovarian = tested on: OVCAR-4 ovarian
HOP-92 NSCLC = tested on: HOP-92 NSCLC
MALME-3M melanoma = tested on: MALME-3M melanoma
HS 578T breast = tested on: HS 578T breast
PC-3 prostate = tested on: PC-3 prostate
HCT-116 colon = tested on: HCT-116 colon
NCI-H460 lung = tested on: NCI-H460 lung
SF-268 CNS = tested on: SF-268 CNS
EKVX NSCLC = tested on: EKVX NSCLC
CCRF-CEM leukemia = tested on: CCRF-CEM leukemia
SR leukemia = tested on: SR leukemia

Structure (SMILES)	TGI (OVCAR-8 ovarian) [µM]	TGI (ACHN renal) [µM]	TGI (SK-MEL-2 melanoma) [µM]	TGI (OVCAR-4 ovarian) [µM]	TGI (HOP-92 NSCLC) [µM]	TGI (MALME-3M melanoma) [µM]	TGI (HS 578T breast) [µM]	TGI (PC-3 prostate) [µM]	TGI (HCT-116 colon) [µM]	TGI (NCI-H460 lung) [µM]	TGI (SF-268 CNS) [µM]	TGI (EKVX NSCLC) [µM]	TGI (CCRF-CEM leukemia) [µM]	TGI (SR leukemia) [µM]
CC(/C=N\NC(=S)N1CCCCC1)=N/NC(=S)N1CCCCC1	16.1	7.16	6.36	15.8	7.48	14.9	14.7	11.9	6.19	9.76	14.6	14.8		
CC(C)C[C@H]1[C@@H](OCc2ccccc2)COS(=O)N1[C@H](C)c1ccccc1 (stereo not given in full)	> 100	> 100	36.1		> 100	48.3	38.6	> 100	19	47.8	> 100	> 100	36.4	
CC(C)(C)c1cc(C(CO)OCCOCCO)cc(C(C)(C)C)c1O (stereo not given)	> 100	> 100	> 100	> 100	> 100	> 100	> 100	> 100	> 100		> 100	> 100	> 100	
CC(NNC(=O)CC(=O)N(C(=O)c1ccccc1)c1ccc(Cl)cc1)c1cc2ccccc2oc1=O (stereo not given)	> 10	> 10	> 10	> 10	> 10	> 10	> 10	> 10	> 10	> 10	> 10	> 10	> 10	
O=C(NCCCN(CCCCN(CCCNC(=O)C(F)(F)F)CCCc1ccccc1)CCCc1ccccc1)C(F)(F)F	3.77	3.42		17.6	4.63	3.34	4.2		5.9	3.27	3.3	4.23	18.8	
CC#C[P+](c1ccccc1)(c1ccccc1)c1ccccc1	12	21.8	5.75	20.1	5.42	22.4			13.3	19.2	8.44	22.5	3.57	14.3
COc1ccc(-c2nc(SCC(=O)N/N=C/c3ccc(O)c(OC)c3)[nH]c2-c2ccc(OC)cc2)cc1	> 100	32.5	33.5	> 100	66.1	81.8		> 100	33.3	75.6	> 100	> 100	92.2	
CCSc1[nH]c(Nc2nc(-c3ccccc3)n(-c3ccccc3)n2)c(C(N)=O)c1C(N)=O	> 10			> 10	> 10	> 10		> 10			> 10	> 10	> 10	> 10
CC(=C\c1ccccc1)/C=C(\C#N)C(N)=O	> 10	> 10	> 10			> 10	> 10	> 10		> 10	> 10	> 10		
COc1ccc(-c2c(C#N)c(O)n(NS(=O)(=O)c3ccc(C)cc3)c(=O)c2C#N)cc1	> 100	> 100	> 100	> 100	> 100	> 100	> 100	> 100	> 100	> 100	> 100	> 100	> 100	
CCc1nc2ccc(N=NN(C)C)cc2[nH]1	> 100	> 100	> 100	> 100		> 100	> 100	> 100	> 100	> 100	> 100	> 100	> 100	
CC12CC(C#N)(C#N)C(C#N)(CO1)C(=N)O2 (stereo not given)	> 100	> 100	> 100	> 100	> 100	90.8	> 100	> 100	> 100	> 100	> 100	> 100	69.1	
CC[C@]1(Cc2ccc(OC)c(OC)c2)[C@@H]2C[C@@H](C3OCCO3)ON2O[C@H](OC2CCCC2(c2ccccc2)c2ccccc2)[C@@H]1OC(C)=O (stereo not given in full)	46.4	33.5	29.5					63.8	50.9	34.7	44.1	44.6	60.8	45.5
CN(CCN(C)C(=S)NN)C(=S)NN		> 100	> 100	> 100		> 100	> 100	> 100	> 100	> 100	> 100	> 100	> 100	> 100
O=[N+]([O-])c1cc2c(c3nonc13)OCCCCO2	14.2	19.6	29.2	27.4	26.3	11.9	67.7	41.7	3.46	14	27.3	38.5	4.98	
